Here are results for two molecules from patent US9199997B2, “Purinone derivative hydrochloride” (ONO PHARMACEUTICAL CO., LTD., priority 2011, dated 2015).

≈ marks a conversion by molar mass, not a printed value.

One data set is described as follows: Blood kinetics in dogs. It counts as in vivo. Particulars: male, beagle, dog, plasma; solubilized solution (WellSolve), oral gavage 1 mg/kg vs intravenous 1 mg/kg, fasted dogs; read-out: bioavailability (BA). As for the experimental part:
The kinetic profiles of compound A and the salt thereof (the compound prepared in Example 9) in blood were evaluated in male beagle dogs under fasting conditions. […] For the intravenous and oral solution administrations, a solubilized solution of Compound A dissolved in WellSolve (Celeste Inc.) heated to 60° C. was used. Using the solubilized solutions, doses of 1 mg/1 mL/kg were rapidly administered intravenously with a syringe via a forelimb cephalic vein, and doses of 1 mg/5 mL/kg were administered by gavage using a catheter. […] The concentration of Compound A in the plasma was measured by LC/MS/MS (UPLC/Xevo, Waters). The area under the curve (AUC, ng·h/mL), maximum concentration (Cmax, μg/mL) and clearance (CL, mL/hr/kg) were calculated from the plasma concentration. The bioavailability (BA) of Compound A was calculated from the AUC of the oral dose and the AUC of the intravenous dose.
Moreover, for the oral suspension administration a liquid was prepared by finely pulverizing Compound A and suspending the particles in an aqueous solution of 0.5% methylcellulose, and then administering doses of 3 and 10 mg/kg in the same manner as the forced oral administration by gavage described above. […] The BA values for each administration method and at each concentration were calculated as relative BA by assigning the BA of Compound A in the solubilized solution a value of 100%.

The nature of data set [1]: Measurement of solubility (HPLC). The format is physicochemical. Particulars: thermodynamic from solid; for solubility at 30 min: after 30 min; for solubility at 24 h: after 24 h. As for the experimental part:
<HPLC Measurement Conditions>
Device: HPLC 1100series, Agilent
Column: YMC-Pack ODS-AM AM-302 (4.6 mm ID×150 mm long)
Column temperature: 25° C.
Mobile phase: 20 mM potassium phosphate monobasic (pH 3.0)/acetonitrile (60:40, isocratic)
Sample rack temperature: 25° C.
Sample injection volume: 10 μL

[2] abbreviates: FaSSIF (artificial intestinal fluid), FaSSIF (pH 6.5).
Setting [3] is: FeSSIF (artificial intestinal fluid), FeSSIF (pH 6.5).
[4] abbreviates: Japanese Pharmacopoeia dissolution test I liquid, simulated gastric fluid, JP dissolution test I liquid (pH 1.2).
Setting [5] is: Japanese Pharmacopoeia dissolution test II liquid, aqueous buffer, JP dissolution test II liquid (pH 6.8).
Where [6] appears, read: diluted McIlvaine buffer, aqueous buffer, Dilute McIlvaine buffer (pH 4.0).
Where [7] appears, read: diluted McIlvaine buffer, aqueous buffer, Dilute McIlvaine buffer (pH 7.4).

For the molecule `CC#CC(=O)N1CC[C@@H](n2c(=O)n(-c3ccc(Oc4ccccc4)cc3)c3c(N)ncnc32)C1` [Compound A, 6-amino-9-[(3R)-1-(2-butynoyl)-3-pyrrolidinyl]-7-(4-phenoxyphenyl)-7,9-dihydro-8H-purin-8-one], in the data set “Blood kinetics in dogs”, the bioavailability was found to be 115%. For the same molecule, the solubility at 30 min in data set [1] (setting [2]) is 35 µg/mL (≈ 77 µM); in data set [1] (setting [3]), 67 µg/mL (≈ 147 µM); in data set [1] (setting [4]) it was 550 µg/mL (≈ 1210 µM); in data set [1] (setting [5]), 31 µg/mL (≈ 68.2 µM); in data set [1] (setting [6]) it was 30 µg/mL (≈ 66 µM); in data set [1] (setting [7]), 29 µg/mL (≈ 63.8 µM). In data set [1] (Purified water), this molecule showed a solubility at 30 min of 32 µg/mL (≈ 70.4 µM). The solubility at 24 h was 36 µg/mL (≈ 79.2 µM) in data set [1] (setting [2]); 84 µg/mL (≈ 185 µM) in data set [1] (setting [3]); 717 µg/mL (≈ 1580 µM) in data set [1] (setting [4]); 32 µg/mL (≈ 70.4 µM) in data set [1] (setting [5]); 34 µg/mL (≈ 74.8 µM) in data set [1] (setting [6]); 29 µg/mL (≈ 63.8 µM) in data set [1] (setting [7]). Moreover, the concentration in solution in data set [1] (Purified water) (solubility at 24 h) was 34 µg/mL (≈ 74.8 µM).
Regarding `CC#CC(=O)N1CC[C@@H](n2c(=O)n(-c3ccc(Oc4ccccc4)cc3)c3c(N)ncnc32)C1.Cl` [Example 9, 6-amino-9-[(3R)-1-(2-butynoyl)-3-pyrrolidinyl]-7-(4-phenoxyphenyl)-7,9-dihydro-8H-purin-8-one hydrochloride], the solubility at 30 min in data set [1] (setting [2]) was 145 µg/mL; in data set [1] (setting [3]), 356 µg/mL; in data set [1] (setting [4]), 1220 µg/mL; in data set [1] (setting [5]), 112 µg/mL; in data set [1] (setting [6]) it was 125 µg/mL; in data set [1] (setting [7]), 103 µg/mL. In data set [1] (Purified water), this molecule yielded a solubility at 30 min of 130 µg/mL. Also, the solubility at 24 h is 118 µg/mL in data set [1] (setting [2]); 301 µg/mL in data set [1] (setting [3]); 1210 µg/mL in data set [1] (setting [4]); 111 µg/mL in data set [1] (setting [5]); 117 µg/mL in data set [1] (setting [6]); 106 µg/mL in data set [1] (setting [7]). Also, the solubility at 24 h in data set [1] (Purified water) was determined as 144 µg/mL.
